Laboratory results: patent US20080131907A1, “ASSAYS FOR DETECTING NATIVE-STATE PROTEINS AND IDENTIFYING COMPOUNDS THAT MODULATE THE STABILITY OF NATIVE-STATE PROTEINS” (FoldRx Pharmaceuticals, Inc., priority 2006, published 2008)
Where “and” joins values, the source holds several entries; their conditions need not be identical. Equal values may be shown once.

Experiments:
tetrameric transthyretin [1] = target: T1, tetrameric transthyretin (Homo sapiens, UniProt P02766); test: Immuno-turbidimetric assay 2: plasma + compound, urea, no cross-linking (dilution or immediate detection); conditions: for Stabilization of transthyretin tetramer (in words): 7.2 μM, urea for 3 days, Table 2; for Stabilization of transthyretin tetramer (in words) / Olympus Normalized / Beckman Normalized: human plasma; for Olympus Normalized / Beckman Normalized: 7.2 μM compound, 4.8 M urea; for Olympus Normalized: Olympus reagent; for Beckman Normalized: Beckman reagent
Procedure: In this second assay, the cross-linking step is replaced with a step of terminating denaturation (caused by the urea treatment) by dilution of the sample. Briefly, a 1 ml sample of human plasma was combined with either 1 μl of a test compound (Cmp. 1: 2-(2,6-dichloro-phenyl)-benzoxazole-6-carboxylic acid or Cmp. 2: 2-(3,5-dichloro-phenyl)-benzoxazole-6-carboxylic acid; see Published U.S. Application No. 20040152140) solubilized in DMSO or a control solution of DMSO, and the samples were incubated for 15 minutes at room temperature prior to addition of urea. The final concentration of the test compounds was 7.2 μM in DMSO. A solution of urea was added such that the final concentration of urea in the sample was 4.8 M. A 1 mL aliquot was removed immediately (no incubation (no-inc)) for dilution (see below) and the remaining 1.5 mL mixture was incubated for 3 days at room temperature (3 day) (FIG. 3). Immediately (for the no-inc) or following the three day incubation (for the 3 day samples), the samples were diluted 1:5 (four volumes diluent were added per one volume equivalent of sample). Potassium chloride (KCl) and sodium phosphate (NaPO4) were also added to the samples at final concentrations of 50 mM and 25 mM, respectively.
2 was also monitored using immuno-turbidimetric assay 2 (Example 2). Plasma samples (a pool from 16 individual donors) containing 4.6 μM transthyretin were treated with 4.6 μm, or 9.2 μm Cmp. 2, or DMSO as a negative control, for 15 minutes at room temperature. Following the incubation, urea was added to the samples resulting in a final urea concentration of 3.2 M (see FIG. 7). Aliquots were removed immediately (day 0) and after incubation at room temperature for 8, 13, 24, 32, and 48 hours. Immediate detection of transthyretin using the Bayer ADVIA prealbumin kit was performed as described by the manufacturer. For each concentration of Cmp. 2, the assay-determined transthyretin concentration at 8, 13, 24, 32, and 48 hours was divided by the assay-determined initial concentration at day 0 to yield the percent of tetramer remaining (FIG. 7).

tetrameric transthyretin [2] = target: T1, tetrameric transthyretin; test: Immuno-turbidimetric assay 1: plasma + compound, 4.8 M urea, glutaraldehyde cross-linking, Olympus OSR6175 reagent; conditions: for Normalized (mg/dL) transthyretin tetramer concentration: 7.2 μM compound, 40 mM glutaraldehyde
Procedure: Next, the immuno-turbidity assay was evaluated in human plasma samples containing transthyretin and in the presence and absence of a test compound 2-(2,6-dichloro-phenyl)-benzoxazole-6-carboxylic acid (a transthyretin stabilizing compound, see Published U.S. Application No. 20040152140). A 1 mL plasma sample was incubated with 1 μL of 2-(2,6-Dichloro-phenyl)-benzoxazole-6-carboxylic acid (solubilized in dimethyl sulfoxide (DMSO), or a control solution containing only DMSO, for 15 minutes at room temperature. The final test concentration of 2-(2,6-dichloro-phenyl)-benzoxazole-6-carboxylic acid (Cmp. 1) was 7.2 μM. Experimental (with compound) or control (only DMSO) samples were then each combined with 1.5 mL of 8 M urea to a final urea concentration of 4.8 M. A 1 mL aliquot was removed immediately (no incubation (no-inc)) for cross-linking and the remaining 1.5 mL mixture was incubated for 3 days at room temperature (3 day). Immediately for the no-inc 1 mL aliquot or following the 3 day incubation for the 3 day samples, 1 mL of the samples was cross-linked by adding 16 L of 25% (2.5 M) glutaraldehyde in water to a final concentration of 40 mM. The mixtures were incubated for 4 minutes at room temperature. The cross-linking reaction was stopped by the addition of 54 μL of 1.85 M freshly prepared sodium borohydride in 0.1 N sodium hydroxide, followed by a 5 minute incubation at room temperature. For analysis, the OSR6175 reagent was added to sample per manufacturer's instructions, and the turbidity, as a measure of the difference between incident and transmitted light, was calculated per manufacturer instruction.
To test the effect of different dosages of 2-(3,5-dichloro-phenyl)-benzoxazole-6-carboxylic acid (Cmp. 2) on transthyretin stabilization, plasma samples (a pool from 20 individual donors) containing 4.3 M transthyretin were treated with 2.2 μM, 4.3 μm, or 8.6 μm Cmp. 2, or DMSO as a negative control, for 15 minutes at room temperature. Following the incubation, the urea denaturant was added to the samples resulting in a final urea concentration of 4.8 M (see FIG. 6). As above, aliquots were removed immediately (day 0) and after incubation at room temperature for 1, 2, and 3 days. Cross-linking (glutaraldehyde) and detection of transthyretin using the Olympus OSR6175 reagent were performed as described under Example 1. For each concentration of Cmp. […]
Since the concentration of transthyretin fluctuates from day to day in an individual subject and can vary between different subjects (e.g., different patients), the efficacy of Cmp. […] Samples were then subjected to denaturation and cross-linking, and stabilized tetrameric transthyretin was measured as described above in Examples 1 and 3.

[3] = target: V30M transthyretin mutation, tetrameric transthyretin (Homo sapiens, UniProt P02766, V50M); test: Immuno-turbidimetric assay 1 on pooled plasma from familial amyloid polyneuropathy patients; assay type: biochemical; conditions: urea 24, 31 or 36, or 48 hours; 22 mg/dL transthyretin; FIG. 9
Procedure: The Y-axis represents the percentage of the initial (“Fraction of initial”) transthyretin tetramer concentration remaining in each sample following treatment with urea.
The samples were then subjected to denaturation for 24, 31 or 36, or 48 hours and then cross-linked (as above).

tetrameric transthyretin [4] = target: T1, tetrameric transthyretin; test: Western blotting method (urea, cross-linking, SDS-PAGE, anti-transthyretin immunoblot) of plasma samples; assay type: biochemical; parameters: human plasma samples containing transthyretin; from tissue; host or cells: human plasma (single samples or pools of donors); conditions: 7.2 μM, 3 day urea treatment, FIG. 4B
Source text: The position of transthyretin tetramer on the immunoblot is indicated at the left of the immunoblot, and the time point at which the samples were collected for assay (0 or 3 days) are indicated above the immunoblot.

Compound	Stabilization of transthyretin tetramer (in words) (tetrameric transthyretin [1])	Dose dependence of tetramer stabilization (percent of tetramer remaining) (tetrameric transthyretin [1]; 4.6 or 9.2 μM, 3.2 M urea, 8-48 hours, Bayer ADVIA prealbumin kit, pooled plasma, FIG. 7)	Olympus Normalized (tetrameric transthyretin [1]; Day 0)	Olympus Normalized (tetrameric transthyretin [1]; Day 3) [mg/dL]	Dose dependence of tetramer stabilization (percent of tetramer remaining) (tetrameric transthyretin [2]; 2.2, 4.3, 8.6 μM, 4.8 M urea, days 1, 2, 3, pooled plasma, FIG. 6)	Stabilization of tetrameric transthyretin in V30M patient plasma [3]	Stabilization of tetrameric transthyretin by western blot (in words) (tetrameric transthyretin [4])	Beckman Normalized (tetrameric transthyretin [1]; Day 0) [mg/dL]	Beckman Normalized (tetrameric transthyretin [1]; Day 3) [mg/dL]	Stabilization of tetrameric transthyretin (in words) (tetrameric transthyretin [2]; 7.2 μM, three-day 4.8 M urea treatment, human plasma)	Normalized (mg/dL) transthyretin tetramer concentration (tetrameric transthyretin [2]; Day 0 (no incubation), 4.8 M urea, human plasma) [mg/dL]	Normalized (mg/dL) transthyretin tetramer concentration (tetrameric transthyretin [2]; Day 3 in 4.8 M urea, human plasma) [mg/dL]
O=C(O)c1ccc2nc(-c3cc(Cl)cc(Cl)c3)oc2c1 [Cmp. 2]	significantly stabilized	more effective than lower concentrations	22.12 mg/dL and 23.72 mg/dL	13.59	more effective than lower concentrations	stabilized in a dose-dependent manner						
O=C(O)c1ccc2nc(-c3c(Cl)cccc3Cl)oc2c1 [Cmp. 1]	almost completely stabilized		22.12 mg/dL	23.45			almost completely stabilized	10.53	12.26	nearly completely stabilized	23.5	21.9
